Measured values: ChEMBL document CHEMBL1123023, “Syntheses and differentiating action of vitamin D endoperoxides. Singlet oxygen adducts of vitamin D derivatives in human myeloid leukemia cells (HL-60)” (1985)

Tests used:
HL-60 = assay: Evaluated for its ability to induce phagocytosis in human myeloid leukemia cells (HL-60); assay type: functional; set-up: unit not given here
[1] = molecular target: T1, Vitamin D3 receptor (Homo sapiens) (UniProt P11473)
T1 sequence (whole entry): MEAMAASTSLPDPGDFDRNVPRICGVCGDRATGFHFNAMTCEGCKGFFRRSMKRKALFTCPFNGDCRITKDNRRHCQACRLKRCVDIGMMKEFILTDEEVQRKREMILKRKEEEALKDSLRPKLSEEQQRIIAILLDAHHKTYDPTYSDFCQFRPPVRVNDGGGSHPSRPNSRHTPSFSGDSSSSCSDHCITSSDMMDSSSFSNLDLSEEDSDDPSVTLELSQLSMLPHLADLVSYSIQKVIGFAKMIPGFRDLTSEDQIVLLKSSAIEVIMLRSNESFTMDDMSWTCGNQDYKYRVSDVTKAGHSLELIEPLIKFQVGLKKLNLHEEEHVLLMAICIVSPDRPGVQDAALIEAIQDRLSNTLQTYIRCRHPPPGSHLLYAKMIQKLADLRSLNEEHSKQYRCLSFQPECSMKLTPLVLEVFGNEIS
Description: Evaluated for its binding affinity towards cytosol receptor in human myeloid leukemia cells (HL-60), by using 1-alpha,25-(OH)2D3 as radioligand

Row | SMILES | Phagocytosis (HL-60) | Binding activity [1]
1 | C=C1/C(=C\C=C2/CCC[C@]3(C)[C@@H]([C@H](C)CC[C@@H](O)C(C)C)CC[C@@H]23)C[C@@H](O)C[C@@H]1O [TACALCITOL] | 1 | 1
2 | C[C@H](CCCC(C)(C)O)[C@H]1CC[C@H]2/C(=C/[C@H]3OOCC4=C3C[C@@H](O)C[C@@H]4O)CCC[C@]12C | 130 | 800
3 | C=C1/C(=C\C=C2/CCC[C@]3(C)[C@@H]([C@H](C)CCCC(C)(C)O)CC[C@@H]23)C[C@@H](O)C[C@@H]1O [CALCITRIOL] | 1 | 
4 | C[C@H](CCCC(O)(C(F)(F)F)C(F)(F)F)[C@H]1CC[C@H]2/C(=C/[C@@H]3OOCC4=C3C[C@@H](O)CC4)CCC[C@]12C.C[C@H](CCCC(O)(C(F)(F)F)C(F)(F)F)[C@H]1CC[C@H]2/C(=C/[C@H]3OOCC4=C3C[C@@H](O)CC4)CCC[C@]12C | 30 | 1500
5 | C[C@H](CCCC(C)(C)O)[C@H]1CC[C@H]2/C(=C/[C@@H]3OOCC4=C3C[C@@H](O)C[C@@H]4O)CCC[C@]12C | 200 | 800
6 | C[C@H](CCCC(C)(C)O)[C@H]1CC[C@H]2/C(=C/[C@@H]3OOCC4=C3C[C@@H](O)CC4)CCC[C@]12C | 130 | 3000
7 | C[C@H](CCC(F)(F)C(C)(C)O)[C@H]1CC[C@H]2/C(=C/[C@@H]3OOCC4=C3C[C@@H](O)CC4)CCC[C@]12C.C[C@H](CCC(F)(F)C(C)(C)O)[C@H]1CC[C@H]2/C(=C/[C@H]3OOCC4=C3C[C@@H](O)CC4)CCC[C@]12C | 45 | 1000
8 | CC(C)[C@H](O)CC[C@@H](C)[C@H]1CC[C@H]2/C(=C/[C@@H]3OOCC4=C3C[C@@H](O)C[C@@H]4O)CCC[C@]12C | 200 | 800
9 | C=C1CC[C@H](O)C/C1=C/C=C1\CCC[C@]2(C)[C@@H]([C@H](C)CCCC(O)(C(F)(F)F)C(F)(F)F)CC[C@@H]12 | 200 | 50
10 | C=C1CC[C@H](O)C/C1=C/C=C1\CCC[C@]2(C)[C@@H]([C@H](C)CCC(F)(F)C(C)(C)O)CC[C@@H]12 | 200 | 1000
11 | C=C1CC[C@H](O)C/C1=C/C=C1\CCC[C@]2(C)[C@@H]([C@H](C)CCCC(C)(C)O)CC[C@@H]12 [CALCIFEDIOL ANHYDROUS] | 320 | 600
12 | CC(C)CCC[C@@H](C)[C@H]1CC[C@H]2/C(=C/[C@@H]3OOCC4=C3C[C@@H](O)C[C@@H]4O)CCC[C@]12C | >1000 | > 10000
13 | C[C@H](CCCC(C)(C)O)[C@H]1CC[C@H]2/C(=C/[C@H]3OOCC4=C3C[C@@H](O)CC4)CCC[C@]12C | 120 | 3000
14 | CC(C)[C@H](O)CC[C@@H](C)[C@H]1CC[C@H]2/C(=C/[C@H]3OOCC4=C3C[C@@H](O)C[C@@H]4O)CCC[C@]12C | 150 | 800
15 | C=C1/C(=C\C=C2/CCC[C@]3(C)[C@@H]([C@H](C)CCCC(C)C)CC[C@@H]23)C[C@@H](O)C[C@@H]1O [ALFACALCIDOL] | 320 | 800
16 | CC(C)CCC[C@@H](C)[C@H]1CC[C@H]2/C(=C/[C@H]3OOCC4=C3C[C@@H](O)C[C@@H]4O)CCC[C@]12C | >1000 | > 10000
